According to ChEMBL document CHEMBL1201862, “PubChem BioAssay data set” (2004):
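Compound exposure: 48 hours, 5 concentrations, 96-well plates. Abbreviation: GI50, concentration required for 50% inhibition of growth.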 Activity calls are given as the source filed them. No stated cut-off is given here; in the data, active = GI50 up to about 1.1 µM and inactive = higher.

Tests used:
Assay in all cases: NCI-60 cell line screen, 48 h
A498 = tested on: A498
A549 = tested on: A549
CAKI-1 = tested on: CAKI-1
HCT-116 = tested on: HCT-116
HL-60 = tested on: HL-60
K562 = tested on: K562
KM12 = tested on: KM12
MDA-MB-435 = tested on: MDA-MB-435
Malme-3M = tested on: Malme-3M
NCI-H23 = tested on: NCI-H23
NCI-H460 = tested on: NCI-H460
NCI/ADR-RES = tested on: NCI/ADR-RES
OVCAR-4 = tested on: OVCAR-4
OVCAR-8 = tested on: OVCAR-8
PC-3 = tested on: PC-3
SNB-19 = tested on: SNB-19
SNB-75 = tested on: SNB-75
T47D = tested on: T47D
TK-10 = tested on: TK-10
SF-539 = tested on: SF-539

Measured: GI50

NNC(=O)c1ccc[n+](CCc2ccccc2)c1
inactive: A498 > 100 µM | A549 > 100 µM | CAKI-1 > 100 µM | HCT-116 > 100 µM | HL-60 > 100 µM | K562 > 100 µM | KM12 > 100 µM | MDA-MB-435 > 100 µM | Malme-3M > 100 µM | NCI-H23 > 100 µM | NCI-H460 > 100 µM | NCI/ADR-RES > 100 µM | OVCAR-4 > 100 µM | OVCAR-8 > 100 µM | PC-3 > 100 µM | SNB-19 > 100 µM | SNB-75 > 100 µM | T47D > 100 µM | TK-10 > 100 µM

N=C(N)/N=C(\N)Nc1cnccn1
inactive: A498 > 100 µM | A549 > 100 µM | CAKI-1 > 100 µM | HCT-116 > 100 µM | HL-60 > 100 µM | K562 > 100 µM | KM12 > 100 µM | MDA-MB-435 > 100 µM | Malme-3M > 100 µM | NCI-H23 > 100 µM | NCI/ADR-RES > 100 µM | OVCAR-4 > 100 µM | OVCAR-8 > 100 µM | PC-3 > 100 µM | SF-539 > 100 µM | SNB-19 > 100 µM | SNB-75 > 100 µM | T47D > 100 µM | TK-10 > 100 µM

CCOC(=O)c1cc2c3c(cc(OC)c2[nH]1)N(C(=O)OCC)CC3
inactive: A498 > 100 µM | A549 > 100 µM | CAKI-1 > 100 µM | HCT-116 > 100 µM | HL-60 > 100 µM | K562 > 100 µM | KM12 > 100 µM | MDA-MB-435 > 100 µM | Malme-3M > 100 µM | NCI-H23 > 100 µM | NCI-H460 > 100 µM | NCI/ADR-RES > 100 µM | OVCAR-4 > 100 µM | OVCAR-8 > 100 µM | PC-3 > 100 µM | SF-539 > 100 µM | SNB-19 > 100 µM | SNB-75 > 100 µM | T47D > 100 µM

O=C(O)[C@@H]1CCCN1 [PROLINE]
inactive: A498 > 100 µM | A549 > 100 µM | HCT-116 > 100 µM | HL-60 > 100 µM | K562 > 100 µM | KM12 > 100 µM | MDA-MB-435 > 100 µM | Malme-3M > 100 µM | NCI-H23 > 100 µM | NCI-H460 > 100 µM | NCI/ADR-RES > 100 µM | OVCAR-4 > 100 µM | OVCAR-8 > 100 µM | PC-3 > 100 µM | SF-539 > 100 µM | SNB-19 > 100 µM | SNB-75 57.4 µM | T47D > 100 µM | TK-10 > 100 µM

N#CC1(O)CCCCCCCCCCC1
inactive: A498 > 100 µM | A549 > 100 µM | CAKI-1 > 100 µM | HCT-116 > 100 µM | HL-60 > 100 µM | K562 > 100 µM | KM12 > 100 µM | MDA-MB-435 > 100 µM | Malme-3M > 100 µM | NCI-H23 > 100 µM | NCI-H460 > 100 µM | NCI/ADR-RES > 100 µM | OVCAR-4 > 100 µM | OVCAR-8 > 100 µM | PC-3 > 100 µM | SF-539 > 100 µM | SNB-19 > 100 µM | T47D > 100 µM | TK-10 > 100 µM

COC(=O)C(Cc1c[nH]c2ccccc12)NP(=O)(O)OCC1OC(n2cc(Br)c(=O)[nH]c2=O)CC1O (centres undefined)
inactive: A498 > 100 µM | A549 > 100 µM | HCT-116 > 100 µM | HL-60 > 100 µM | K562 > 100 µM | KM12 > 100 µM | MDA-MB-435 > 100 µM | Malme-3M > 100 µM | NCI-H23 > 100 µM | NCI-H460 > 100 µM | NCI/ADR-RES > 100 µM | OVCAR-4 > 100 µM | OVCAR-8 > 100 µM | PC-3 > 100 µM | SF-539 > 100 µM | SNB-19 > 100 µM | SNB-75 > 100 µM | T47D > 100 µM | TK-10 > 100 µM

CC(C)OP(=O)(OC(C)C)C(C(C)C)N(C)/C(F)=N/C(F)(F)F (centres undefined)
inactive: A498 > 100 µM | A549 > 100 µM | CAKI-1 > 100 µM | HCT-116 > 100 µM | HL-60 31 µM | K562 60.5 µM | KM12 > 100 µM | MDA-MB-435 > 100 µM | Malme-3M > 100 µM | NCI-H23 > 100 µM | NCI-H460 > 100 µM | NCI/ADR-RES > 100 µM | OVCAR-8 > 100 µM | PC-3 > 100 µM | SF-539 > 100 µM | SNB-19 > 100 µM | SNB-75 > 100 µM | T47D > 100 µM | TK-10 > 100 µM

O=C1/C(=C\c2ccc(Cl)cc2)N=C(c2ccccc2)N1n1c(=O)cn[nH]c1=S
inactive: A498 > 100 µM | A549 > 100 µM | CAKI-1 40.2 µM | HCT-116 68.2 µM | HL-60 18.2 µM | K562 16.9 µM | KM12 > 100 µM | MDA-MB-435 30.5 µM | Malme-3M > 100 µM | NCI-H23 20.3 µM | NCI-H460 > 100 µM | NCI/ADR-RES 45 µM | OVCAR-4 23.6 µM | OVCAR-8 21.8 µM | PC-3 39.7 µM | SF-539 > 100 µM | SNB-19 54.3 µM | T47D 13.5 µM

O=C(CSc1ncnc2[nH]cnc12)c1ccccc1
inactive: A498 > 100 µM | A549 > 100 µM | CAKI-1 75.2 µM | HCT-116 > 100 µM | HL-60 > 100 µM | K562 41.3 µM | KM12 > 41.1 µM | MDA-MB-435 > 100 µM | Malme-3M > 100 µM | NCI-H23 > 100 µM | NCI-H460 > 100 µM | NCI/ADR-RES 96.4 µM | OVCAR-4 > 48 µM | OVCAR-8 > 100 µM | PC-3 > 100 µM | SF-539 > 100 µM | SNB-19 > 100 µM | T47D > 100 µM | TK-10 > 66.7 µM

O=C(O)C1C(C(=O)Nc2ccc3c(c2)Cc2ccccc2-3)C2(Cl)C(Cl)=C(Cl)C1(Cl)C2(Cl)Cl (centres undefined)
inactive: A498 19.4 µM | A549 33.3 µM | CAKI-1 41.9 µM | HCT-116 18.7 µM | HL-60 26.6 µM | K562 2.6 µM | KM12 18.7 µM | MDA-MB-435 29.1 µM | Malme-3M 20.6 µM | NCI-H23 17.5 µM | NCI/ADR-RES 36.6 µM | OVCAR-4 27.7 µM | OVCAR-8 20.3 µM | PC-3 15.6 µM | SF-539 13.2 µM | SNB-19 36 µM | SNB-75 26.2 µM | T47D 32.1 µM | TK-10 27.2 µM
